The values that follow come from ChEMBL document CHEMBL5149986, “Spliceostatins and Derivatives: Chemical Syntheses and Biological Properties of Potent Splicing Inhibitors” (J Nat Prod, 2021).

As a reminder, the IC50 is the midpoint of a concentration-inhibition curve.

One data set concerns MES-SA/Dx5. The data set is described as follows: Cytotoxicity against human MES-SA/Dx5 cells assessed as inhibition in cell growth. It is filed as functional, cell-based.
A further data set has as its system MES-SA. Description: Cytotoxicity against human MES-SA cells assessed as inhibition in cell growth. It is filed as functional, cell-based.
A short description of data set [1]: Cytotoxicity against HEK293T cells assessed as inhibition in cell growth. The class given is toxicity, cell-based, HEK-293T. The settings on record: human.

The structures appear in SMILES notation. Square brackets hold non-standard residues; d marks the D form. Peptide text beside a SMILES is read from it. * marks the point of attachment. Dolaproine = CO[C@@H]([C@@H]1CCCN1)[C@@H](C)C(=O)O; Dil = CC[C@H](C)[C@H](NC)[C@@H](CC(=O)O)OC; X1 = C[C@@H](N*)[C@@H](O)c1ccccc1; NMeV = CN[C@H](C(=O)O)C(C)C

Regarding `CC(/C=C/[C@H]1O[C@H](C)C[C@@]2(CO2)[C@@H]1O)=C\C[C@@H]1O[C@H](C)[C@H](NC(=O)/C=C\[C@H](C)NC(=O)C(C)C)C[C@@H]1C`, the values for the IC50 (in the data set with MES-SA/Dx5; with MES-SA; in data set [1]) were 4.91 nM, 0.23 nM and 0.015 nM, respectively.
Regarding `CC(=O)O[C@H]1C(=O)[C@@]2(C)[C@H]([C@H](OC(=O)c3ccccc3)[C@]3(O)C[C@H](OC(=O)[C@H](O)[C@@H](NC(=O)c4ccccc4)c4ccccc4)C(C)=C1C3(C)C)[C@]1(OC(C)=O)CO[C@@H]1C[C@@H]2O` [PACLITAXEL], the half-inhibitory concentration (IC50) in the data set with MES-SA/Dx5 was greater than 400 nM; with MES-SA, 2.47 nM; in data set [1], 1.76 nM.
In the case of `CC(=O)O[C@@H](C)/C=C\C(=O)N[C@@H]1C[C@H](C)[C@H](C/C=C(C)/C=C/[C@H]2O[C@H](CC(=O)OC(C)(C)C)C[C@@]3(CO3)[C@@H]2O)O[C@@H]1C`, the IC50 with MES-SA/Dx5 is 0.48 nM; with MES-SA, 1.37 nM; in data set [1], 0.005 nM.
For `CC(/C=C/[C@H]1O[C@H](C)C[C@@]2(CO2)[C@@H]1O)=C\C[C@@H]1O[C@H](C)[C@H](NC(=O)/C=C\[C@H](C)NC(=O)N(C)C)C[C@@H]1C`, in that order: greater than 16 nM, 1.97 nM and 0.28 nM.
In the same order, the values of `CO[C@@H]1C[C@@]2(CO2)[C@H](O)[C@@H](/C=C/C(C)=C/C[C@@H]2O[C@H](C)[C@H](NC(=O)/C=C\[C@H](C)NC(=O)C(C)C)C[C@@H]2C)O1` are 384 nM, 6.16 nM and 0.058 nM.
For the molecule `CC(/C=C/[C@H]1O[C@H](C)C[C@@]2(CO2)[C@@H]1O)=C\C[C@@H]1O[C@H](C)[C@H](NC(=O)/C=C\[C@H](C)NC(=O)N2CCOCC2)C[C@@H]1C`, the values for the IC50 (in the data set with MES-SA/Dx5; in the data set on MES-SA; in data set [1]) were 100 nM, 2.87 nM and 0.3 nM, respectively.
As to `CC(=O)O[C@@H](C)/C=C\C(=O)N[C@@H]1C[C@H](C)[C@H](C/C=C(C)/C=C/[C@H]2O[C@H](CCO)C[C@@]3(CO3)[C@@H]2O)O[C@@H]1C`, the 50% inhibitory concentration (IC50) turned out to be 3.21 nM in the data set with MES-SA/Dx5, 0.072 nM in the data set with MES-SA and 0.007 nM in data set [1].
For `CO[C@@H]1C[C@@]2(CO2)[C@H](O)[C@@H](/C=C/C(C)=C/C[C@@H]2O[C@H](C)[C@H](NC(=O)/C=C\[C@H](C)OC(=O)N3CCOCC3)C[C@@H]2C)O1`, in that order: 13.8 nM, 0.49 nM and 0.006 nM.
In the case of `CC(=O)O[C@@H](C)/C=C\C(=O)N[C@@H]1C[C@H](C)[C@H](C/C=C(C)/C=C/[C@H]2O[C@H](CC(C)(C)O)C[C@@]3(CO3)[C@@H]2O)O[C@@H]1C`, the half-inhibitory concentration (IC50) is 2.96 nM in the data set with MES-SA/Dx5, 0.64 nM in the data set with MES-SA and 0.08 nM in data set [1].
With `CC(/C=C/[C@H]1O[C@H](C)C[C@@]2(CO2)[C@@H]1O)=C\C[C@@H]1O[C@H](C)[C@H](NC(=O)/C=C\[C@H](C)NC(=O)N2CCCCC2)C[C@@H]1C`, the half-maximal inhibitory concentration (IC50) in the data set with MES-SA/Dx5 amounted to 64 nM; in the data set on MES-SA, 3.19 nM; in data set [1] it was 0.041 nM.
As to `CC(=O)O[C@@H](C)/C=C\C(=O)N[C@@H]1C[C@H](C)[C@H](C/C=C(C)/C=C/[C@H]2O[C@H](CCNC(=O)OC(C)(C)C)C[C@@]3(CO3)[C@@H]2O)O[C@@H]1C`, the IC50 in the data set on MES-SA/Dx5 amounted to 1.8 nM; in the data set with MES-SA, 0.13 nM; in data set [1], 0.004 nM.
For `CC(=O)O[C@@H](C)/C=C\C(=O)N[C@@H]1C[C@H](C)[C@H](C/C=C(C)/C=C/[C@H]2O[C@H](CCC#N)C[C@@]3(CO3)[C@@H]2O)O[C@@H]1C`, in that order: 2.6 nM, 0.82 nM and 0.099 nM.
For `CC(/C=C/[C@H]1O[C@H](C)C[C@@]2(CO2)[C@@H]1O)=C\C[C@@H]1O[C@H](C)[C@H](NC(=O)/C=C\[C@H](C)OC(=O)N(C)C)C[C@@H]1C`, in that order: 0.14 nM, 0.04 nM and 0.003 nM.
For `CO[C@@H]1C[C@@]2(CO2)[C@H](O)[C@@H](/C=C/C(C)=C/C[C@@H]2O[C@H](C)[C@H](NC(=O)/C=C\[C@H](C)OC(=O)N(C)CCO)C[C@@H]2C)O1`, in that order: 11 nM, 0.63 nM and 0.009 nM.
On to `CC(=O)O[C@@H](C)/C=C\C(=O)N[C@@H]1C[C@H](C)[C@H](C/C=C(C)/C=C/[C@H]2O[C@H](CC(=O)O)C[C@@]3(CO3)[C@@H]2O)O[C@@H]1C` [THAILANSTATIN A], for which the IC50 is greater than 400 nM in the data set with MES-SA/Dx5, 419 nM with MES-SA and 296 nM in data set [1].
For `C=C1C[C@@H](CC(=O)O)O[C@H](/C=C/C(C)=C/C[C@@H]2O[C@H](C)[C@H](NC(=O)/C=C\[C@H](C)OC(C)=O)C[C@@H]2C)[C@H]1O`, in that order: greater than 1000 nM, greater than 1000 nM and greater than 1000 nM.
For `CC(=O)O[C@@H](C)/C=C\C(=O)N[C@@H]1C[C@H](C)[C@H](C/C=C(C)/C=C/[C@H]2O[C@H](C)C[C@@]3(CO3)[C@@H]2O)O[C@@H]1C`, in that order: 0.56 nM, 0.55 nM and 0.1 nM.
In the same order, the values of `CC[C@H](C)[C@@H]([C@@H](CC(=O)N1CCC[C@H]1[C@H](OC)[C@@H](C)C(=O)N[C@H](C)[C@@H](O)c1ccccc1)OC)N(C)C(=O)[C@@H](NC(=O)[C@@H](NC)C(C)C)C(C)C` (H-[NMeV]V[Dil][Dolaproine]-X1) are 88.2 nM, 0.096 nM and 0.068 nM.
For the molecule `CC(/C=C/[C@H]1O[C@H](C)C[C@@]2(CO2)[C@@H]1O)=C\C[C@@H]1O[C@H](C)[C@H](NC(=O)/C=C\[C@H](C)OC(=O)N2CCCCC2)C[C@@H]1C`, the IC50 is 0.57 nM in the data set on MES-SA/Dx5, 0.5 nM in the data set on MES-SA and 0.07 nM in data set [1].
For `CC(=O)O[C@@H](C)/C=C\C(=O)N[C@@H]1C[C@H](C)[C@H](C/C=C(C)/C=C/[C@H]2O[C@H](CCN=[N+]=[N-])C[C@@]3(CO3)[C@@H]2O)O[C@@H]1C`, in that order: 0.72 nM, 1.08 nM and 0.028 nM.
For `CC(/C=C/[C@H]1O[C@H](C)C[C@@]2(CO2)[C@@H]1O)=C\C[C@@H]1O[C@H](C)[C@H](NC(=O)/C=C\[C@H](C)OC(=O)N2CCOCC2)C[C@@H]1C`, in that order: 1.48 nM, 0.38 nM and 0.08 nM.
In the same order, the values of `CO[C@@H]1C[C@@]2(CO2)[C@H](O)[C@@H](/C=C/C(C)=C/C[C@@H]2O[C@H](C)[C@H](NC(=O)/C=C\[C@H](C)OC(=O)N3CCCCC3)C[C@@H]2C)O1` are 3.35 nM, 3.71 nM and 0.11 nM.
Consider `CC(/C=C/[C@H]1O[C@H](CC(=O)OC(C)(C)C)C[C@@](O)(CCl)[C@@H]1O)=C\C[C@@H]1O[C@H](C)[C@H](NC(=O)/C=C\[C@H](C)OC(=O)C(C)C)C[C@@H]1C`, for which the IC50 in the data set with MES-SA/Dx5 worked out at 10.3 nM; with MES-SA it was 264 nM; in data set [1] it was 0.13 nM.
Regarding `CNC(=O)O[C@@H]1[C@@H](/C=C/C(C)=C/C[C@@H]2O[C@H](C)[C@H](NC(=O)/C=C\[C@H](C)OC(C)=O)C[C@@H]2C)O[C@H](OC)C[C@@]12CO2`, the IC50 with MES-SA/Dx5 was found to be 76.1 nM; in the data set on MES-SA, 76.7 nM; in data set [1], 10.1 nM.
For `CO[C@@H]1C[C@@]2(CO2)[C@H](O)[C@@H](/C=C/C(C)=C/C[C@@H]2O[C@H](C)[C@H](NC(=O)/C=C\[C@H](C)OC(=O)N(C)C)C[C@@H]2C)O1`, the IC50 with MES-SA/Dx5 came to 2.01 nM; in the data set on MES-SA, 1.08 nM; in data set [1], 0.09 nM.
For `CC(/C=C/[C@H]1O[C@H](C)C[C@@]2(CO2)[C@@H]1O)=C\C[C@@H]1O[C@H](C)[C@H](NC(=O)/C=C\[C@H](C)OC(=O)N2CCN(C(=O)OC(C)(C)C)CC2)C[C@@H]1C`, in that order: 7.01 nM, 2.87 nM and 0.018 nM.
In the same order, the values of `CO[C@@H]1C[C@@]2(CN2)[C@H](O)[C@@H](/C=C/C(C)=C/C[C@@H]2O[C@H](C)[C@H](NC(=O)/C=C\[C@H](C)OC(C)=O)C[C@@H]2C)O1` are 210 nM, 0.6 nM and 0.144 nM.
In the same order, the values of `CC(/C=C/[C@H]1O[C@H](CC(=O)OC2CC2)C[C@@]2(CO2)[C@@H]1O)=C\C[C@@H]1O[C@H](C)[C@H](NC(=O)/C=C\[C@H](C)OC(=O)C(C)C)C[C@@H]1C` are 16.1 nM, 2.15 nM and 0.218 nM.
For `CO[C@@H]1C[C@@]2(CO2)[C@H](OC(C)=O)[C@@H](/C=C/C(C)=C/C[C@@H]2O[C@H](C)[C@H](NC(=O)/C=C\[C@H](C)OC(C)=O)C[C@@H]2C)O1`, the half-inhibitory concentration (IC50) with MES-SA/Dx5 amounted to 1.98 nM; in the data set with MES-SA, 1.76 nM; in data set [1], 0.031 nM.
In the case of `CC(/C=C/[C@H]1O[C@H](CC(=O)O)C[C@@](O)(CCl)[C@@H]1O)=C\C[C@@H]1O[C@H](C)[C@H](NC(=O)/C=C\[C@H](C)OC(=O)C(C)C)C[C@@H]1C` [THAILANSTATIN C], the 50% inhibitory concentration (IC50) in the data set on MES-SA/Dx5 came out at 298 nM; in the data set on MES-SA, 137 nM; in data set [1], 64.7 nM.
With `COC(=O)C[C@@H]1C[C@@]2(CO2)[C@H](O)[C@@H](/C=C/C(C)=C/C[C@@H]2O[C@H](C)[C@H](NC(=O)/C=C\[C@H](C)NC(=O)C(C)C)C[C@@H]2C)O1`, the concentration for half-maximal inhibition (IC50) was found to be 384 nM in the data set with MES-SA/Dx5, 6.16 nM with MES-SA and 0.058 nM in data set [1].
For `CC(=O)O[C@@H](C)/C=C\C(=O)N[C@@H]1C[C@H](C)[C@H](C/C=C(C)/C=C/[C@H]2O[C@H](CC(=O)OC(C)(C)C)C[C@@](O)(CCl)[C@@H]2O)O[C@@H]1C`, in that order: 5.16 nM, 14.9 nM and 0.033 nM.
For `CCOC(=O)/C=C/C[C@@H]1C[C@@]2(CO2)[C@H](O)[C@@H](/C=C/C(C)=C/C[C@@H]2O[C@H](C)[C@H](NC(=O)/C=C\[C@H](C)OC(=O)C(C)C)C[C@@H]2C)O1`, in that order: 2.73 nM, 2.96 nM and 0.09 nM.
In the same order, the values of `CC(=O)O[C@@H](C)/C=C\C(=O)N[C@@H]1C[C@H](C)[C@H](C/C=C(C)/C=C/[C@H]2O[C@H](CC(=O)O)C[C@@](O)(CCl)[C@@H]2O)O[C@@H]1C` [THAILANSTATIN B] are greater than 1000 nM, 856 nM and 194 nM.
